Data published in patent publication US4199570A, “1-N-Hetero containing aminoglycoside derivatives” (Shionogi & Co., Ltd., priority 1977, dated 1980).
In brackets after ≈: the same amount, converted by molar mass.

Legend:
Assay type in all cases: cell-based
Proteus vulgaris TB-615 [1] = experiment: MIC (Table 2); conditions: TB615, tobramycin resistant strain, read-out: Minimum Inhibitory Concentration (MIC)
[2] = system: Staphylococcus epidermidis TB-302; experiment: MIC (Table 2); conditions: TB302, tobramycin resistant strain, read-out: Minimum Inhibitory Concentration (MIC)
[3] = system: Staphylococcus epidermidis TB-775; experiment: MIC (Table 2); conditions: TB775, tobramycin resistant strain, read-out: Minimum Inhibitory Concentration (MIC)
[4] = system: Pseudomonas aeruginosa TB-121; experiment: MIC (Table 2); conditions: TB121, tobramycin resistant strain, read-out: Minimum Inhibitory Concentration (MIC)
[5] = system: Pseudomonas aeruginosa TB-151; experiment: MIC (Table 2); conditions: TB151, tobramycin resistant strain, read-out: Minimum Inhibitory Concentration (MIC)
[6] = system: Pseudomonas aeruginosa TB-151; experiment: MIC (Table 3); conditions: TB151, read-out: Minimum Inhibitory Concentration (MIC)
[7] = system: Pseudomonas aerginosa TB-121; experiment: MIC (Table 3); conditions: TB121, read-out: Minimum Inhibitory Concentration (MIC)
Proteus vulgaris TB-615 [8] = experiment: MIC (Table 3); conditions: TB615, read-out: Minimum Inhibitory Concentration (MIC)
[9] = system: Staphylococcus epidermidis TB-775; experiment: MIC (Table 3); conditions: TB775, read-out: Minimum Inhibitory Concentration (MIC)

SMILES | MIC (Proteus vulgaris TB-615 [1]) [µg/mL] | MIC [2] [µg/mL] | MIC [3] [µg/mL] | MIC [4] [µg/mL] | MIC [5] [µg/mL] | MIC [6] [µg/mL] | MIC [7] [µg/mL] | MIC (Proteus vulgaris TB-615 [8]) [µg/mL] | MIC [9] [µg/mL]
NC[C@H]1O[C@H](O[C@H]2[C@H](O)[C@@H](O[C@H]3O[C@H](CO)[C@@H](O)[C@H](N)[C@H]3O)[C@H](NC(=O)C3(O)CNC3)C[C@@H]2N)[C@H](N)C[C@@H]1O [Comp. (1), 1-N-(3-hydroxyazetidine-3-carbonyl)tobramycin] | 6.25 (≈ 11 µM) | 12.5 (≈ 22.1 µM) | > 100 | 25 (≈ 44.1 µM) | 3.13 (≈ 5.52 µM) | – | – | – | –
NC[C@H]1O[C@H](O[C@H]2[C@H](O)[C@@H](O[C@H]3O[C@H](CO)[C@@H](O)[C@H](N)[C@H]3O)[C@H](NC(=O)C3(O)CNC3)C[C@@H]2N)[C@H](O)[C@@H](O)[C@@H]1O [Comp. (2), 1-N-(3-hydroxyazetidine-3-carbonyl)kanamycin A] | 6.25 (≈ 10.7 µM) | 6.25 (≈ 10.7 µM) | 50 (≈ 85.7 µM) | 25 (≈ 42.8 µM) | 6.25 (≈ 10.7 µM) | – | – | – | –
NC[C@H]1O[C@H](O[C@H]2[C@H](O)[C@@H](O[C@H]3O[C@H](CO)[C@@H](O)[C@H](N)[C@H]3O)[C@H](N)C[C@@H]2N)[C@H](O)[C@@H](O)[C@@H]1O [KM-A, kanamycin A] | 100 (≈ 206 µM) | 12.5 (≈ 25.8 µM) | > 100 | > 100 | > 100 | – | – | – | –
NC[C@H]1O[C@H](O[C@H]2[C@H](O)[C@@H](O[C@H]3O[C@H](CO)[C@@H](O)[C@H](N)[C@H]3O)[C@H](N)C[C@@H]2N)[C@H](N)C[C@@H]1O [TOB, tobramycin] | 50 (≈ 107 µM) | 25 (≈ 53.5 µM) | > 100 | 100 (≈ 214 µM) | 100 (≈ 214 µM) | 25 (≈ 53.5 µM) | 25 (≈ 53.5 µM) | 50 (≈ 107 µM) | 100 (≈ 214 µM)
